We go through 14 molecules from patent US8445473B2, “Heteroaryl-substituted bicyclic Smac mimetics and the uses thereof” (The Regents of the University of Michigan, priority 2008, dated 2013).

The target of series [1] is T1, XIAP BIR3 protein (Homo sapiens, UniProt P98170). The experiment in a line: Fluorescence polarization competitive binding assay to XIAP BIR3. To be noted: FP competitive binding, SM5F or SM-F1 as the tracer.
Source text: A sensitive and quantitative in vitro binding assay using the fluorescence polarization (FP) based method was used to determine the binding affinity of Smac mimetics to XIAP protein (Nikolovska-Coleska et al., Anal. Biochem. 332:261-73 (2004)). For this assay, 5-carboxyfluorescein (5-Fam) was coupled to the lysine side chain of the mutated Smac peptide, AbuRPF-K-(5-Fam)-NH2 (termed SM5F). Another fluorescently tagged Smac mimetic (termed SM-F1) with higher affinities than SM5F was also used.
(§1) In competitive binding experiments using SM5F as the tracer to XIAP BIR3 protein, the tested compound was incubated with XIAP BIR3 protein (30 nM) and SM5F (5 nM) in the assay buffer (100 mM potassium phosphate, pH 7.5; 100 μg/ml bovine gamma globulin; 0.02% sodium azide, Invitrogen). Dose-dependent competitive binding FP experiments were carried out with serial dilutions of tested compounds. For each assay, the bound peptide control containing recombinant XIAP BIR3 protein and SM5F (equivalent to 0% inhibition) and free peptide control containing only free SM5F (equivalent to 100% inhibition) will be included. The polarization values were measured after 3 hrs of incubation when the binding reached equilibrium using an ULTRA READER (Tecan U.S. Inc., Research Triangle Park, N.C.). IC50 values, the inhibitor concentration at which 50% of bound peptide is displaced, will be determined from a plot using nonlinear least-squares analysis. Curve fitting will be performed using GRAPHPAD PRISM software (GraphPad Software, Inc., San Diego, Calif.).
as §1, with “using SM-F1” for “using SM5F”, “protein (10” for “protein (30”, “and SM-1F (2” for “and SM5F (5”, “and SM-1F” for “and SM5F”, “free SM-1F” for “free SM5F”
Negative controls containing protein/tracer complex only (equivalent to 0% inhibition), and positive controls containing only free tracers (equivalent to 100% inhibition), were included in each assay plate. FP values were measured as described above. IC50 values were determined by nonlinear regression fitting of the competition curves. The Ki values of competitive inhibitors were calculated using the equation described before (Nikolovska-Coleska et al., Anal. Biochem. 332:261-73 (2004)), based upon the measured IC50 values, the Kd values of the tracer to different proteins, and the concentrations of the proteins and tracers in the competitive assays. Ki values were also calculated using a commonly used equation known in the literature (Huang, X. J. Biomol. Screen. 8:34-38 (2003)).

The target of series [2] is T2, cIAP1 BIR3 domain (residues 253-363) (Homo sapiens, UniProt Q13490).
T2 construct: The recombinant cIAP1 BIR3 domain (residues 253-363); His-tag
T2 sequence (Q13490 253-363): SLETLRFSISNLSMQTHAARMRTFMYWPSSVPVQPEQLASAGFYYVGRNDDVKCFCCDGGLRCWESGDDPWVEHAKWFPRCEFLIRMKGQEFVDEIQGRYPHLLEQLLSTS
The experiment in a line: Fluorescence polarization competitive binding assay to cIAP1 BIR3. The following applies: FP competitive binding, SM5F or SM-F1 as the tracer. Here is the method:
(§2) In order to test the binding ability of conformationally constrained Smac mimetics to other IAP proteins (cIAP1 and cIAP2) binding assay conditions were developed. The recombinant cIAP1 BIR3 domain (residues 253-363), cIAP2 BIR3 domain (residues 238-349), fused to a His-tag, were used in the binding assays. Competitive binding assays for other IAP proteins are performed similarly as that described for XIAP BIR3.
(§3) In competitive binding experiments using SM5F as the tracer to cIAP-1 BIR3 protein, the tested compound was incubated with cIAP-1 BIR3 protein (10 nM) and SM5F (2 nM) in the assay buffer. In competitive binding experiments using SM5F as the tracer to cIAP-2 BIR3 protein, the tested compound was incubated with cIAP-2 BIR3 protein (25 nM) and SM5F (2 nM) in the assay buffer. All other procedures for cIAP-1 BIR3 and cIAP-2 BIR3 proteins were the same as those used for XIAP BIR3 protein competitive assays.
(§4) In competitive binding experiments using SM-F1 as the tracer to cIAP-1 BIR3 protein, the tested compound was incubated with cIAP-1 BIR3 protein (3 nM) and SM-F1 (1 nM) in the assay buffer. In competitive binding experiments using SM-F1 as the tracer to cIAP-2 BIR3 protein, the tested compound was incubated with cIAP-2 BIR3 protein (5 nM) and SM-F1 (1 nM) in the assay buffer.

Series [3] addresses T3, cIAP2 BIR3 domain (residues 238-349) (Homo sapiens, UniProt Q13489).
T3 construct: cIAP2 BIR3 domain (residues 238-349); His-tag
The experiment in a line: Fluorescence polarization competitive binding assay to cIAP2 BIR3. The following applies: FP competitive binding, SM5F or SM-F1 as the tracer. Here is the method: as §2, §3, §4

Series [4] relates to MDA-MB-231 human breast cancer cell line. Description: Cell growth inhibition, WST-8 assay. Format: cell-based. The following applies: MDA-MB-231, 96 h, 4 days. Here is the method:
(§5) The effect of the compounds of the present invention on the growth of various cancer cell lines was tested. Cells were seeded in 96-well flat bottom cell culture plates at a density of 3000 cells/well with a tested compound and incubated at 37° C. in an atmosphere of 95% air and 5% CO2 for 4 days. The rate of cell growth inhibition after treatment with different concentrations of the compound was determined using a WST-8 kit (2-(2-methoxy-4-nitrophenyl)-3-(4-nitrophenyl)-5-(2, 4 disulfophenyl)-2H-tetrazolium monosodium salt; Dojindo Molecular Technologies, Inc., Gaithersburg, Md.). WST-8 was added at a final concentration of 10% to each well, and then the plates were incubated at 37° C. for 2-3 hrs. The absorbance of the samples was measured at 450 nm using a ULTRA Tecan Reader (Molecular Device). The concentration of the tested compound that inhibited cell growth by 50% (IC50) was calculated by comparing absorbance in untreated cells and the cells treated with the tested compound.

Series [5] concerns SK-OV-3 ovarian cancer cell line. The experiment in a line: Cell growth inhibition, WST-8 assay. The series is classed as cell-based. The following applies: Homo sapiens, SK-OV-3, 96 h, 4 days. On the procedure:
as §5

Series [6] can be described thus: Pharmacokinetics in rats following oral administration. To be noted: rat, in vivo, male Sprague-Dawley rats, 25 mg/kg, mean±SD; for AUC(0-inf) / Cmax / Tmax: n=3; for half-life: n=3, read-out: half-life (T½) (converted).
In series [7] the target is T1, XIAP BIR3 protein. The following applies: tracer SM5F; Nikolovska-Coleska et al. 2004; cited from earlier work.
T1 sequence (P98170 241-356 limits assumed): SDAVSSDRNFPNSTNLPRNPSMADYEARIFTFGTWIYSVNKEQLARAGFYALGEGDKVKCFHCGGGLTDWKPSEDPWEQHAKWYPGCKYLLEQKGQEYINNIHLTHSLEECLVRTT
The target of series [8] is T4, recombinant cIAP-1 BIR3 (Homo sapiens, UniProt Q13490).
T4 construct: The recombinant cIAP1 BIR3 domain (residues 253-363); His-tag
T4 sequence (Q13490 253-363): as the sequence (Q13490 253-363) above
The following applies: tracer SM5F; Peng et al. 2008; cited from earlier work.

Series [9] concerns the target T5, recombinant cIAP-2 BIR3 (Homo sapiens, UniProt Q13489).
T5 construct: cIAP2 BIR3 domain (residues 238-349); His-tag
The following applies: tracer SM5F; Peng et al. 2008; cited from earlier work.

The target of series [10] is XIAP BIR3. To be noted: background statement; cited from earlier work.

T3 sequence (Q13489 238-349): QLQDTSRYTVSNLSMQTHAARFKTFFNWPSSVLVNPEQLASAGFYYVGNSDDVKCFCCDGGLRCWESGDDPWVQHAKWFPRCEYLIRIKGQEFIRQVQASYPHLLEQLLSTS
T1 sequence (P98170 241-356 limits assumed): as the sequence (P98170 241-356 limits assumed) above
T5 sequence (Q13489 238-349): as the sequence (Q13489 238-349) above

As for `CN[C@@H](C)C(=O)N[C@H]1CCCC[C@H]2CC[C@@H](c3nc(-c4ccccc4)cs3)N2C1=O` [SM-1229], the 50% inhibitory concentration (IC50) in series [1] was less than 5000 nM; in series [2] it was less than 2000 nM; in series [3], less than 2000 nM; in [4] it was less than 100000 nM; in [5] it was less than 100000 nM.
`CN[C@@H](C)C(=O)N[C@H]1CN(C(=O)CC(C)C)CC[C@H]2CC[C@@H](c3nc(-c4ccccc4)cs3)N2C1=O` [SM-1235]: the IC50 in series [1] was less than 200 nM; in [2], less than 1000 nM; in series [3], less than 1000 nM; in series [4], less than 3000 nM; in [5], less than 3000 nM.
For `CN[C@@H](C)C(=O)N[C@H]1CCCC[C@H]2CC[C@@H](c3nc4c(-c5ccccc5)cccc4[nH]3)N2C1=O` [SM-1237], the half-maximal inhibitory concentration (IC50) in series [1] is less than 200 nM; in [2], less than 100 nM; in series [3] it was less than 100 nM; in series [4], less than 3000 nM; in [5], less than 3000 nM.
Take `CN[C@@H](C)C(=O)N[C@H]1CN(C(=O)Cc2ccccc2)CC[C@H]2CC[C@@H](c3nc4c(-c5ccccc5)cccc4[nH]3)N2C1=O` [SM-1257]: the IC50 in series [1] is less than 500 nM; in series [2] it was less than 100 nM; in [3], less than 100 nM; in series [4], less than 3000 nM; in series [5], less than 3000 nM.
As for `CN[C@@H](C)C(=O)N[C@H]1CN(C(=O)Cc2ccc(F)cc2)CC[C@H]2CC[C@@H](c3nc4c(-c5ccccc5)cccc4[nH]3)N2C1=O` [SM-1268], the half-maximal inhibitory concentration (IC50) was less than 500 nM in series [1]; less than 100 nM in series [2]; less than 100 nM in series [3]; less than 3000 nM in series [4]; less than 3000 nM in series [5]. In series [6], this molecule had a total exposure AUC(0-inf) of 6490 ± 965 ng·h/mL. Besides, the concentration in series [6] peaked (Cmax) at 612 ± 16 ng/mL. Further, in series [6], the Tmax amounted to 2 h. The half-life in series [6] was 4.2 ± 1 h.
As for `CN[C@@H](C)C(=O)N[C@H]1CN(C(=O)CCc2ccccc2)CC[C@H]2CC[C@@H](c3nc4c(-c5ccccc5)cccc4[nH]3)N2C1=O` [SM-1270], the 50% inhibitory concentration (IC50) in [1] was less than 500 nM; in series [2], less than 100 nM; in series [3], less than 100 nM; in series [4] it was less than 3000 nM; in series [5], less than 3000 nM.
Take `CN[C@@H](C)C(=O)N[C@H]1CN(C(=O)CCc2ccc(F)cc2)CC[C@H]2CC[C@@H](c3nc4c(-c5ccccc5)cccc4[nH]3)N2C1=O` [SM-1271]: the IC50 in series [1] was less than 500 nM; in series [2], less than 100 nM; in [3], less than 100 nM; in series [4], less than 3000 nM; in series [5], less than 3000 nM.
For the molecule `CN[C@@H](C)C(=O)N[C@H]1CN(C(=O)Cc2ccc(F)cc2)CC[C@H]2CC[C@@H](c3nc4c(-c5cccc(F)c5)cccc4[nH]3)N2C1=O` [SM-1306], the IC50 in [1] was less than 5000 nM; in series [2], less than 100 nM; in series [3], less than 100 nM; in series [4], less than 3000 nM; in [5] it was less than 3000 nM.
As for `CN[C@@H](C)C(=O)N[C@H]1CN(C(=O)Cc2ccc(F)cc2)CC[C@H]2CC[C@@H](c3nc4c(-c5ccc(F)cc5)cccc4[nH]3)N2C1=O` [SM-1307], the IC50 in series [1] is less than 500 nM; in series [2] it was less than 100 nM; in series [3], less than 100 nM; in [4], less than 3000 nM; in [5] it was less than 3000 nM.
For `CN[C@@H](C)C(=O)N[C@H]1CN(C(=O)Cc2ccc(F)cc2)CC[C@H]2CC[C@@H](c3nc4c(-c5ccccc5F)cccc4[nH]3)N2C1=O` [SM-1308], the half-inhibitory concentration (IC50) is less than 500 nM in series [1]; less than 100 nM in series [2]; less than 100 nM in [3]; less than 3000 nM in series [4]; less than 3000 nM in [5].
With `CN[C@@H](C)C(=O)N[C@H]1CN(C(=O)CC(C)C)CC[C@H]2CC[C@@H](c3nc4c(-c5ccc(F)cc5)cccc4[nH]3)N2C1=O` [SM-1316], the half-maximal inhibitory concentration (IC50) in series [1] was less than 500 nM; in series [2] it was less than 100 nM; in series [3] it was less than 100 nM; in series [4] it was less than 3000 nM; in series [5], less than 3000 nM. Besides, the AUC(0-inf) in series [6] was 14300 ± 1970 ng·h/mL. Besides, the highest level in [6] (Cmax) was 1530 ± 275 ng/mL. The time of peak concentration (Tmax) in [6] amounted to 2 h. Also, the half-life in series [6] is 6.7 ± 1.2 h.
On to `CN[C@@H](C)C(=O)N[C@H]1CN(C(=O)Cc2ccccc2)CC[C@H]2CC[C@@H](c3nc4c(-c5ccc(F)cc5)cccc4[nH]3)N2C1=O` [SM-1317], for which the concentration for half-maximal inhibition (IC50) in [1] is less than 500 nM; in series [2], less than 100 nM; in series [3], less than 100 nM; in series [4], less than 3000 nM; in [5], less than 3000 nM.
As for AbuRPF-K-(5-Fam)-NH2 [SM5F], the values for the equilibrium dissociation constant (Kd) in [7], in series [8] and in series [9] were 17.9 nM, 4.1 nM and 6.6 nM, respectively.

B1: mature Smac protein: mature Smac/DIABLO protein, endogenous inhibitor of XIAP (protein, UniProt Q9NR28 22-239, looked up)
Diablo IAP-binding …: LCVPVVANFKKRCFSELIRPWHKTVTIGFGVTLCAVPIAQKSEPHSLSSEALMRRAVSLVTDSTSTFLSQTTYALIEAITEYTKAVYTLTSLYRQYTSLLGKMNSEEEDEVWQVIIGARAEMTSKHQEYLKLETTWMTAVGLSEMAAEAAYQTGADQASITARNHIQLVKLQVEEVHQLSRKAETKLAEAQIEELRQKTQEEGEERAESEQEAYLRED
Take B1: in series [10], the Kd is 420 nM.
